From patent publication US20230391739A1, “ARYL DERIVATIVES FOR TREATING TRPM3 MEDIATED DISORDERS” (Katholieke Universiteit Leuven, priority 2020, published 2023)

What follows are compounds tested against T1, mouse TRPM3α2 (mTRPM3) ion channel (Mus musculus, UniProt J9SQF3) (assay: TRPM3 ion channel driven Ca2+ uptake, Fluo-4 AM assay, PS-stimulated (mTRPM3)). Conditions: TRPM3 overexpressing flip-in HEK293 cells stimulated with Pregnenolone sulfate (PS) 50 μM, activity ranges A, B, C.
T1 construct: expressed in transfected cells; host or cells: flip-in HEK293
Assay type: cell-based
Summary of the method: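 Flp-In HEK293 cells overexpressing mTRPM3α2 were added, in Ca²⁺-free Krebs, to wells already holding compound and 50 μM pregnenolone sulfate in Ca²⁺-containing Krebs. Fluo-4 AM fluorescence (ex 485/em 535 nm) was read immediately. Percent inhibition was computed from RFU relative to PS/vehicle wells and a positive-control inhibitor.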

T1 sequence (J9SQF3 1-1709 isoform J9SQF3-12): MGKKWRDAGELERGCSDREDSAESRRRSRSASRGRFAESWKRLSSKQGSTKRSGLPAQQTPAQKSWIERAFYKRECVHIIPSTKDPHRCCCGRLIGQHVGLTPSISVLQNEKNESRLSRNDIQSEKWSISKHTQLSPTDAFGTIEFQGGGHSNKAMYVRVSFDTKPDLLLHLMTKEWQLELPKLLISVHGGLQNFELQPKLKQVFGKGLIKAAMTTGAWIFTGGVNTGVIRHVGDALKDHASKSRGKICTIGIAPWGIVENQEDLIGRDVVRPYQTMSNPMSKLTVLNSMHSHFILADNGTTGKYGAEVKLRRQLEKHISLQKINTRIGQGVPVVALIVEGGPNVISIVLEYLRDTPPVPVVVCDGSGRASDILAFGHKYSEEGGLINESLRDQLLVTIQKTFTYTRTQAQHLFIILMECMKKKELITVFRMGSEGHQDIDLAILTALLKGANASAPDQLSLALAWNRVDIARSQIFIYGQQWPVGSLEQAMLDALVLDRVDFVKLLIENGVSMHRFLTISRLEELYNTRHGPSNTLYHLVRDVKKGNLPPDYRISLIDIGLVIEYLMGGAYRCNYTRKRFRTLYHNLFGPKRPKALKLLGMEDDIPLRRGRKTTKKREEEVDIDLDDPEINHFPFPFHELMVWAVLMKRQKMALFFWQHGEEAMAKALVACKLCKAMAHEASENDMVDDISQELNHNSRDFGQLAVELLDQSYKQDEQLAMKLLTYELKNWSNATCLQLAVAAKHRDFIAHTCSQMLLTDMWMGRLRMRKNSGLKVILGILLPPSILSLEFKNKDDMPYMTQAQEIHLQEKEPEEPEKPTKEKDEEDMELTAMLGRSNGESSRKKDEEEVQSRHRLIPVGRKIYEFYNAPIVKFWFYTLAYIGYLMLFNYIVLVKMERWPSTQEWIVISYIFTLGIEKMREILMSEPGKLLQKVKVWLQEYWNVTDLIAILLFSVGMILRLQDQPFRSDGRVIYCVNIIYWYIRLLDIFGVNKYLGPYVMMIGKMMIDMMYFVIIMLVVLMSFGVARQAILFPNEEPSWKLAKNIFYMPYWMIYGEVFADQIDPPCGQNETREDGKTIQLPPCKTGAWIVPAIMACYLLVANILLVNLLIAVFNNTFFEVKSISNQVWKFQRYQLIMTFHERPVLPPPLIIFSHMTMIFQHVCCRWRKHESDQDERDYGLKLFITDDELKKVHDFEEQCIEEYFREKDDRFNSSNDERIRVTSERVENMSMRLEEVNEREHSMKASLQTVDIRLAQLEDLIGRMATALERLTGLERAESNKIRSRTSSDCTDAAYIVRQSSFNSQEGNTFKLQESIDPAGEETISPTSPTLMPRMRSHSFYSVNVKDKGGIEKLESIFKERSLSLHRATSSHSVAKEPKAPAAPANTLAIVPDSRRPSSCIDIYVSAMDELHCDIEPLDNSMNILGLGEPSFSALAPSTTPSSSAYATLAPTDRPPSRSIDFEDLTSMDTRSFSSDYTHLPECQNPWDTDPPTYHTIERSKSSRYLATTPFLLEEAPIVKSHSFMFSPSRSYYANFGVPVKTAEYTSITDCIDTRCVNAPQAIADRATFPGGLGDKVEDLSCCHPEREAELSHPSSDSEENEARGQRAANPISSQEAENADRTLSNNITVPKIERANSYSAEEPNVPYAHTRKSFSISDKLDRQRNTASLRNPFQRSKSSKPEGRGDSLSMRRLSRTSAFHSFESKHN

IC50 | SMILES
1000 to 20000 nM | Cc1oc2ccc(OCc3ccccc3)cc2c1C(=O)NC1CCN(C)C(=O)C1 (centres unmarked) [Cpd 146, 5-(benzyloxy)-2-methyl-N-(1-methyl-2-oxopiperidin-4-yl)benzofuran-3-carboxamide]
1000 to 20000 nM | Cc1oc2ccc(OCc3ccccc3Cl)cc2c1C(=O)O [Cpd 018, 5-((2-chlorobenzyl)oxy)-2-methylbenzofuran-3-carboxylic acid]
< 1000 nM | Cc1oc2ccc(OCc3ccccc3)cc2c1C(=O)N[C@@H]1CN[C@H](CO)C1 [Cpd 126, 5-(benzyloxy)-N-((3S,5S)-5-(hydroxymethyl)pyrrolidin-3-yl)-2-methylbenzofuran-3-carboxamide]
< 1000 nM | Cc1oc2ccc(OC(CO)c3ccccc3F)cc2c1C(=O)N[C@@H](CO)C(N)=O (single isomer, unassigned) [Cpd 335-Dia 2]
< 1000 nM | Cc1oc2ccc(OCc3ccccc3)cc2c1C(=O)NC1CCN(C)C1 (centres unmarked) [Cpd 076, 5-(benzyloxy)-2-methyl-N-(1-methylpyrrolidin-3-yl)benzofuran-3-carboxamide]
< 1000 nM | Cc1oc2ccc(OCc3ccccc3)cc2c1C(=O)NC1CNCC1F (racemic) [Cpd 094, rac-5-(benzyloxy)-N-(cis-4-fluoropyrrolidin-3-yl)-2-methylbenzofuran-3-carboxamide]
< 1000 nM | Cc1oc2ccc(OCc3cccc(F)c3)cc2c1C(=O)NS(=O)(=O)C1CC1 [Cpd 176, N-(cyclopropylsulfonyl)-5-((3-fluorobenzyl)oxy)-2-methylbenzofuran-3-carboxamide]
> 20000 nM | Cc1oc2ccc(OCc3cccc(CNC(=O)OC(C)(C)C)c3)cc2c1C(=O)NC1CCNC1=O (centres unmarked) [Cpd 261, tert-butyl (3-(((2-methyl-3-((2-oxopyrrolidin-3-yl)carbamoyl)benzofuran-5-yl)oxy)methyl)-benzyl)carbamate]
1000 to 20000 nM | Cc1oc2ccc(OCc3c(F)cccc3Cl)cc2c1C(=O)N(C)C [Cpd 065, 5-((2-chloro-6-fluorobenzyl)oxy)-N,N,2-trimethylbenzofuran-3-carboxamide]
1000 to 20000 nM | Cc1oc2cc(Cl)c(OCc3ccccc3)cc2c1C(=O)NC1CNCC1(F)F (single isomer, unassigned) [Cpd 300-En 1, 5-(benzyloxy)-6-chloro-N-(4,4-difluoropyrrolidin-3-yl)-2-methylbenzofuran-3-carboxamide]
< 1000 nM | Cc1oc2ccc(OCc3ccccc3)cc2c1C(=O)NC1CNCC1F (racemic) [Cpd 093, rac-5-(benzyloxy)-N-(trans-4-fluoropyrrolidin-3-yl)-2-methylbenzofuran-3-carboxamide]
< 1000 nM | Cc1oc2ccc(OCc3ccccc3)cc2c1C(=O)NCC1CCC(=O)N1 (centres unmarked) [Cpd 112, 5-(benzyloxy)-2-methyl-N-((5-oxopyrrolidin-2-yl)methyl)benzofuran-3-carboxamide]
1000 to 20000 nM | Cc1oc2ccc(OCc3ccccc3)cc2c1C(=O)NC1CN(C(=O)OC(C)(C)C)C1 [Cpd 228, tert-butyl 3-(5-(benzyloxy)-2-methylbenzofuran-3-carboxamido)azetidine-1-carboxylate]
1000 to 20000 nM | Cc1oc2ccc(OCc3ccccc3)cc2c1C(=O)NC1(CNC(=O)OC(C)(C)C)CCC1 [Cpd 246, tert-butyl ((1-(5-(benzyloxy)-2-methylbenzofuran-3-carboxamido)cyclobutyl)methyl)carbamate]
< 1000 nM | Cc1oc2ccc(OCc3ccc(F)cc3)cc2c1C(=O)N[C@H]1CCNC1 [Cpd 097, (S)-5-((4-fluorobenzyl)oxy)-2-methyl-N-(pyrrolidin-3-yl)benzofuran-3-carboxamide]
1000 to 20000 nM | Cc1oc2ccc(OCc3cccc(C(F)(F)F)c3)cc2c1C(=O)NC1CCN(C)CC1 [Cpd 232, 2-methyl-N-(1-methylpiperidin-4-yl)-5-((3-(trifluoromethyl)benzyl)oxy)benzofuran-3-carboxamide]

SMILES | IC50
Cc1oc2ccc(OCc3ccccc3)cc2c1C(=O)N[C@@H]1C[C@H]2CCC[C@@H](C1)N2 [Cpd 184, 5-(benzyloxy)-N-((1R,3s,5S)-9-azabicyclo[3.3.1]nonan-3-yl)-2-methylbenzofuran-3-carboxamide] | < 1000 nM
